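96-well plates; 48 h exposure; 5 concentrations. Endpoints by linear interpolation between flanking doses. Not reached: highest tested concentration assigned. The concentration for 50% growth inhibition is given as GI50. TGI: concentration producing complete growth inhibition.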 Where a SMILES comes first, the peptide text is derived from it. The star is where a group is joined. Boc = CC(C)(C)OC(=O)*
Legend:
Experiment in all cases: growth of human tumour cells (NCI), 48 h; in the data active means GI50 below about 0.43 µM; inactive means the rest
DU-145 prostate = system: DU-145 prostate
KM12 colon = system: KM12 colon
SK-MEL-2 melanoma = system: SK-MEL-2 melanoma
IGROV1 ovarian = system: IGROV1 ovarian
EKVX NSCLC = system: EKVX NSCLC
HT29 colon = system: HT29 colon
OVCAR-3 ovarian = system: OVCAR-3 ovarian
CCRF-CEM leukemia = system: CCRF-CEM leukemia
SK-MEL-5 melanoma = system: SK-MEL-5 melanoma
MDA-N = system: MDA-N

COc1cc2c(cc1OCCCC(=O)Nc1ccc3ccc4cccc5ccc1c3c45)N=C[C@@H]1CCCN1C2=O
active: GI50 (DU-145 prostate) < 0.01 µM | GI50 (KM12 colon) 0.104 µM | GI50 (SK-MEL-2 melanoma) < 0.01 µM | GI50 (IGROV1 ovarian) < 0.0167 µM | GI50 (EKVX NSCLC) 0.0299 µM | GI50 (OVCAR-3 ovarian) 0.197 µM | GI50 (CCRF-CEM leukemia) 0.0335 µM
< 0.01 µM: TGI (DU-145 prostate) | TGI (SK-MEL-2 melanoma)
0.169 µM: TGI (EKVX NSCLC)
0.725 µM: TGI (KM12 colon)
> 83.6 µM: TGI (HT29 colon)
0.518 µM: TGI (OVCAR-3 ovarian)
0.936 µM: TGI (CCRF-CEM leukemia)

NC(=S)N/N=C\c1nccc2ccccc12
> 100 µM: TGI (DU-145 prostate) | TGI (KM12 colon) | TGI (SK-MEL-2 melanoma) | TGI (MDA-N) | TGI (OVCAR-3 ovarian)
2.21 µM: TGI (EKVX NSCLC)
17.4 µM: TGI (IGROV1 ovarian)
3.7 µM: TGI (SK-MEL-5 melanoma)
30.9 µM: TGI (HT29 colon)

O=C(NCCCCCCNC(=O)c1cc(-c2ccccc2)nc2ccccc12)c1cc(-c2ccccc2)nc2ccccc12
> 100 µM: TGI (DU-145 prostate) | TGI (IGROV1 ovarian) | TGI (SK-MEL-5 melanoma) | TGI (EKVX NSCLC) | TGI (MDA-N) | TGI (HT29 colon) | TGI (OVCAR-3 ovarian) | TGI (CCRF-CEM leukemia)

COC(=O)C1(C)C=CC(=O)C2(C)C1C(O)C1OC3CC(c4ccoc4)C(C)=C3C1(C)C2CC(=O)O (stereo unspecified)
> 100 µM: TGI (DU-145 prostate) | TGI (KM12 colon) | TGI (SK-MEL-2 melanoma) | TGI (IGROV1 ovarian) | TGI (SK-MEL-5 melanoma) | TGI (EKVX NSCLC) | TGI (MDA-N) | TGI (OVCAR-3 ovarian) | TGI (CCRF-CEM leukemia)

Cn1c(-c2cccc([N+](=O)[O-])c2)[n+](C)c2ccccc21
> 100 µM: TGI (DU-145 prostate) | TGI (KM12 colon) | TGI (SK-MEL-2 melanoma) | TGI (IGROV1 ovarian) | TGI (SK-MEL-5 melanoma) | TGI (EKVX NSCLC) | TGI (HT29 colon) | TGI (OVCAR-3 ovarian) | TGI (CCRF-CEM leukemia)

O=C1CC(c2ccccc2)n2cccc21 (stereo unspecified)
> 100 µM: TGI (DU-145 prostate) | TGI (KM12 colon) | TGI (SK-MEL-2 melanoma) | TGI (IGROV1 ovarian) | TGI (SK-MEL-5 melanoma) | TGI (EKVX NSCLC) | TGI (HT29 colon) | TGI (OVCAR-3 ovarian) | TGI (CCRF-CEM leukemia)

COc1cc(/C=c2\sc3n(c2=O)C(c2ccc(Cl)cc2)C2=C(CCCC2C)N=3)cc(OC)c1OC (stereo unspecified)
> 100 µM: TGI (DU-145 prostate) | TGI (KM12 colon) | TGI (SK-MEL-2 melanoma) | TGI (IGROV1 ovarian) | TGI (SK-MEL-5 melanoma) | TGI (EKVX NSCLC) | TGI (MDA-N) | TGI (HT29 colon) | TGI (CCRF-CEM leukemia)

CC(=O)C1CC[C@@H]2[C@H](CC[C@]3(C)[C@@H](O)CC[C@@H]23)[C@H]1C(=O)O (stereo partly specified)
> 100 µM: TGI (KM12 colon) | TGI (SK-MEL-2 melanoma) | TGI (IGROV1 ovarian) | TGI (SK-MEL-5 melanoma) | TGI (EKVX NSCLC) | TGI (HT29 colon) | TGI (OVCAR-3 ovarian) | TGI (CCRF-CEM leukemia)

COC(=O)C(Cc1c[nH]c2ccccc12)NC(=O)C(Cc1c[nH]c2ccccc12)NC(=O)C(Cc1c[nH]c2ccccc12)NC(=O)C(Cc1c[nH]c2ccccc12)NC(=O)C(Cc1c[nH]c2ccccc12)NC(=O)C(Cc1c[nH]c2ccccc12)NC(=O)C(Cc1c[nH]c2ccccc12)NC(=O)C(Cc1c[nH]c2ccccc12)NC(=O)OC(C)(C)C (stereo unspecified) (Boc-WWWWWWWW-OMe; configuration not given here)
73.3 µM: TGI (SK-MEL-5 melanoma)
> 100 µM: TGI (DU-145 prostate) | TGI (SK-MEL-2 melanoma) | TGI (IGROV1 ovarian) | TGI (MDA-N) | TGI (HT29 colon) | TGI (OVCAR-3 ovarian)
96.2 µM: TGI (CCRF-CEM leukemia)

O=C1c2ccccc2C(=O)N1CC(O)COc1cccc2ccccc12 (stereo unspecified)
> 100 µM: TGI (DU-145 prostate) | TGI (IGROV1 ovarian) | TGI (SK-MEL-5 melanoma) | TGI (EKVX NSCLC) | TGI (MDA-N) | TGI (HT29 colon) | TGI (OVCAR-3 ovarian) | TGI (CCRF-CEM leukemia)

N#Cc1ccc(-n2c3ccccc3c3ccc4c(c32)C(=O)C=CC4=O)cc1
5.88 µM: TGI (HT29 colon)
5.58 µM: TGI (EKVX NSCLC)
16.2 µM: TGI (IGROV1 ovarian)
12.2 µM: TGI (SK-MEL-5 melanoma)
13.1 µM: TGI (MDA-N)
11.1 µM: TGI (OVCAR-3 ovarian)
> 24.7 µM: TGI (DU-145 prostate)
26.5 µM: TGI (KM12 colon)
28.9 µM: TGI (SK-MEL-2 melanoma)

CN(C)c1nc(Cl)c2c(-c3ccccc3)c(-c3ccccc3)oc2n1
> 100 µM: TGI (DU-145 prostate) | TGI (KM12 colon) | TGI (IGROV1 ovarian) | TGI (SK-MEL-5 melanoma) | TGI (EKVX NSCLC) | TGI (HT29 colon) | TGI (CCRF-CEM leukemia)

C=C(C)[C@@H]1CCC2=C[C@H](OC2=O)[C@@]2(C)C[C@@H]2C2=CC(C)=C(O2)[C@H]1O
> 75 µM: TGI (DU-145 prostate) | TGI (KM12 colon) | TGI (SK-MEL-2 melanoma) | TGI (IGROV1 ovarian) | TGI (EKVX NSCLC) | TGI (MDA-N) | TGI (HT29 colon) | TGI (OVCAR-3 ovarian) | TGI (CCRF-CEM leukemia)

COC(=O)c1c2cccccc-2c(Cc2c3cccccc-3c(C(=O)OC)c2O)c1O
> 100 µM: TGI (KM12 colon) | TGI (SK-MEL-2 melanoma) | TGI (IGROV1 ovarian) | TGI (SK-MEL-5 melanoma) | TGI (EKVX NSCLC) | TGI (HT29 colon) | TGI (OVCAR-3 ovarian) | TGI (CCRF-CEM leukemia)

C=C1CCC([N+](=O)[O-])[C@](C)(N=O)CC[C@@H]2C1CC2(C)C (stereo partly specified)
> 100 µM: TGI (DU-145 prostate) | TGI (MDA-N) | TGI (CCRF-CEM leukemia)
56.3 µM: TGI (OVCAR-3 ovarian)
65.5 µM: TGI (KM12 colon)
59.1 µM: TGI (IGROV1 ovarian)
40.4 µM: TGI (EKVX NSCLC)
28.6 µM: TGI (SK-MEL-5 melanoma)
45.4 µM: TGI (HT29 colon)

CCOC(=O)c1ccc(N=c2sc3ccccc3nc2Nc2ccc(C(=O)OCC)cc2)cc1
> 100 µM: TGI (DU-145 prostate) | TGI (KM12 colon) | TGI (SK-MEL-2 melanoma) | TGI (IGROV1 ovarian) | TGI (SK-MEL-5 melanoma) | TGI (EKVX NSCLC) | TGI (MDA-N) | TGI (HT29 colon) | TGI (CCRF-CEM leukemia)

CC(=O)O[C@H]1C(=O)[C@@]2(C)C(C(OC(=O)c3ccccc3)C3[C@@H](O)C(OC(=O)[C@@H](O)[C@H](NC(=O)c4ccccc4)c4ccc(C(F)(F)F)cc4)C(C)=C1C3(C)C)[C@]1(OC(C)=O)CO[C@@H]1C[C@@H]2O (stereo partly specified)
> 25 µM: TGI (SK-MEL-2 melanoma) | TGI (IGROV1 ovarian) | TGI (SK-MEL-5 melanoma) | TGI (EKVX NSCLC) | TGI (HT29 colon) | TGI (OVCAR-3 ovarian) | TGI (CCRF-CEM leukemia)

Cn1c2ccccc2c(=O)c2cccc(C(=O)NC(CCC(N)=O)C(=O)O)c21 (stereo unspecified)
> 100 µM: TGI (DU-145 prostate) | TGI (KM12 colon) | TGI (SK-MEL-2 melanoma) | TGI (IGROV1 ovarian) | TGI (SK-MEL-5 melanoma) | TGI (EKVX NSCLC) | TGI (MDA-N) | TGI (HT29 colon) | TGI (OVCAR-3 ovarian)

COc1ccc(/C=C2\CCC(C)C3=C2N=c2s/c(=C/c4cccc(Br)c4)c(=O)n2C3c2ccc(OC)c(OC)c2)cc1OC (stereo unspecified)
> 100 µM: TGI (DU-145 prostate) | TGI (KM12 colon) | TGI (SK-MEL-2 melanoma) | TGI (IGROV1 ovarian) | TGI (SK-MEL-5 melanoma) | TGI (EKVX NSCLC) | TGI (MDA-N) | TGI (HT29 colon) | TGI (CCRF-CEM leukemia)

CCCC(=O)OC1C(CO)OC(n2cc(F)c(=O)[nH]c2=O)C1F (stereo unspecified)
> 100 µM: TGI (DU-145 prostate) | TGI (KM12 colon) | TGI (SK-MEL-2 melanoma) | TGI (IGROV1 ovarian) | TGI (SK-MEL-5 melanoma) | TGI (EKVX NSCLC) | TGI (HT29 colon) | TGI (OVCAR-3 ovarian) | TGI (CCRF-CEM leukemia)
